Results: patent publication EP3248604A1, “AGENTS FOR MODULATION OF WNT-TCF SIGNALLING AND USES THEREOF” (UNIVERSITE DE GENEVE, priority 2016, dated 2017)
Where two headings read alike, the source gives them in different places.

Experiments:
WNT-TCF targets [1] = test: RT-qPCR gene expression in Ls174T cells; type: cell-based, human; conditions: for fold induction at 0.5 µM / fold induction at 5 µM: Homo sapiens
Experimental: (§1) RT-qPCR was performed as in Melotti et al. (2014, supra) using BioRad equipment and reagents. Cells cultured in nitro were treated with the desired concentration of drug in DMEM-F12 and reduced serum (2.5% FBS) for 16h, unless otherwise noted, and collected in Trizol (Sigma) before total RNA extraction and cDNA synthesis. Primers were as in Table 1. HPRT (gene encoding Hypoxanthine phosphoribosyltransferase 1) and βACTIN were used as housekeeping controls for normalization.
Compounds have been tested for the transcriptional modulation of a restricted TCF signature in human colon cancer Ls174T cells. These included the direct targets AXIN2 (gene encoding a protein axis inhibition protein 2), LGR5 (gene encoding encodes leucine-rich repeat-containing G-protein coupled receptor 5) and cMYC (a regulator gene encoding a transcription factor), which should be repressed by WNT-TCF response antagonists and p21 (or CDKN1A, gene encoding a cyclin-dependent kinase inhibitor that inhibits the complexes of CDK2 and CDK1), which should be induced.

WNT-TCF targets [2] = test: RT-qPCR gene expression in CC14 primary colon cancer cells; type: cell-based, human; parameters: cMYC expression: scale not given here; conditions: 100 nM; Example 2 cells (CC14)
Experimental: as §1
Primary colon cells CC14 were cultured in DMEM-F12 with 10% FBS under standard in vitro conditions.
Primary colon cells CC14, CC36 and mCC11, colon cancer cell lines DLD1, HT29, Ls174T, melanoma cell line MeWo, glioblastoma cell lines U87 and U251, and the lung cancer cell line H358 were cultured in DMEM-F12 with 10% FBS under standard in nitro conditions.

cell proliferation = test: BrdU incorporation assay; type: cell-based; conditions: 10 µM; 16h
Experimental: Cells incubated in vitro with different compounds were treated in DMEM-F12 with reduced serum (2.5% FBS) for 20 min with BrdU (5-bromo-2'-deoxyuridine; 10mg/ml, Sigma), washed and fixed with fresh paraformaldehyde (PFA; 4%, pH 8) followed by acid treatment and neutralization (Melotti et al., 2014, supra). Antibody analyses used anti-BrdU antibodies (supplied by University of Iowa Hybridoma Bank) and rhodamine-coupled anti-mouse secondary antibodies (Invitrogen Molecular Probes). Nuclei were counterstained with DAPI (4',6-diamidino-2-phenylindole; Sigma).

CC14 cells = test: Epithelial island morphology of CC14 cells; type: cell-based, human; conditions: 24h; for epithelial island morphology: 1 µM
Experimental: Similar phenotypes were only observed at 10 µM of CAP1 or 5 µM of CAP3. CAP2 was thus chosen for further detailed analyses.

[3] = Ls174T, 0.5µM, 16h, over DMSO-treated controls, read-out: AXIN2 expression
[4] = Ls174T, 0.5µM, 16h, over DMSO-treated controls, read-out: CDKN1A expression
[5] = Ls174T, 0.5µM, 16h, over DMSO-treated controls, read-out: LGR5 expression
[6] = Ls174T, 0.5µM, 16h, over DMSO-treated controls, read-out: cMYC expression
[7] = Ls174T, 0.5µM, 16h, over DMSO-treated controls
[8] = Ls174T, 5µM, 16h, over DMSO-treated controls
[9] = LS174T, 16 h, read-out: AXIN2 expression
[10] = LS174T, 16 h, read-out: CDKN1A expression
[11] = LS174T, 16 h, read-out: cMYC expression

## C[C@@H]1O[C@@H](O[C@H]2C[C@@H](O)[C@]3(CO)[C@H]4[C@H](O)C[C@]5(C)[C@@H](C6=CC(=O)OC6)CC[C@]5(O)[C@@H]4CC[C@]3(O)C2)[C@H](O)[C@H](O)[C@H]1O [Ouabain, ouabain, reference compound]
WNT-TCF targets [1]; [3]
  fold induction at 0.5 µM: 0.8
WNT-TCF targets [1]; [4]
  fold induction at 0.5 µM: 10
WNT-TCF targets [1]; [5]
  fold induction at 0.5 µM: 3.3
WNT-TCF targets [1]; [6]
  fold induction at 0.5 µM: 0.5
WNT-TCF targets [1]; Ls174T, 5µM, 16h, over DMSO-treated controls, read-out: AXIN2 expression
  fold induction at 5 µM: 1
WNT-TCF targets [1]; Ls174T, 5µM, 16h, over DMSO-treated controls, read-out: LGR5 expression
  fold induction at 5 µM: 1.4

## CC1=C(C)C(=O)O[C@@H]([C@@](C)(O)[C@]2(O)CC[C@@]3(O)[C@@H]4CC=C5C[C@@H](O[C@@H]6O[C@H](CO)[C@@H](O)[C@H](O)[C@H]6O)CC(=O)[C@]5(C)[C@H]4CC[C@]23C)C1 [CAP1, (14R,17S,20R,22R)-3β,14,17,20-Tetrahydroxy-1-oxo-witha-5,24-dienolide 3-O-β-D-glucopyranoside]
WNT-TCF targets [2]
  AXIN2 expression: 1.1
  LGR5 expression: 0.8
  cMYC expression: 1.2
Cell proliferation
  reduction of BrdU incorporation: > 50%
WNT-TCF targets [1]; Ls174T, 10 µM, 16h
  AXIN2 expression: 0.7
  CDKN1A expression: 2.5
  LGR5 expression: 0.2
  cMYC expression: 0.1
CC14 cells
  epithelial island morphology: maintained
  concentration at which disrupted morphology phenotype was observed: 10 µM

## C[C@H]1O[C@@H](O[C@H]2[C@@H](O)C[C@H](O[C@H]3[C@@H](O)C[C@H](O[C@H]4CC[C@@]5(C)[C@H](CC[C@@H]6[C@@H]5C[C@@H](O)[C@]5(C)[C@@H](C7=CC(=O)OC7)CC[C@]65O)C4)O[C@@H]3C)O[C@@H]2C)C[C@H](O)[C@@H]1O [Digoxin, digoxin, reference compound]
WNT-TCF targets [1]; [3]
  fold induction at 0.5 µM: 0.5
WNT-TCF targets [1]; [4]
  fold induction at 0.5 µM: 3
WNT-TCF targets [1]; [5]
  fold induction at 0.5 µM: 6.6
WNT-TCF targets [1]; [6]
  fold induction at 0.5 µM: 1.1

## C[C@H]1O[C@@H](O[C@H]2[C@@H](O)C[C@H](O[C@H]3[C@@H](O)C[C@H](O[C@H]4CC[C@@]5(C)[C@H](CC[C@@H]6[C@@H]5CC[C@]5(C)[C@@H](C7=CC(=O)OC7)CC[C@]65O)C4)O[C@@H]3C)O[C@@H]2C)C[C@H](O)[C@@H]1O [Digitoxin, digitoxin, reference compound]
WNT-TCF targets [1]; [3]
  fold induction at 0.5 µM: 0.6
WNT-TCF targets [1]; [4]
  fold induction at 0.5 µM: 1.7
WNT-TCF targets [1]; [5]
  fold induction at 0.5 µM: 2.1
WNT-TCF targets [1]; [6]
  fold induction at 0.5 µM: 0.2
WNT-TCF targets [1]; Ls174T, lower doses 100 and 10 nM
  LGR5 repression: lack of repressing on LGR5

## CO[C@H]1C[C@H](O[C@H]2CC[C@@]3(C)[C@H](CC[C@@H]4[C@@H]3CC[C@]3(C)[C@@H](C5=CC(=O)OC5)[C@@H](OC(C)=O)C[C@]43O)C2)O[C@@H](C)[C@@H]1O [Oleandrin, oleandrin, reference compound]
WNT-TCF targets [1]; [3]
  fold induction at 0.5 µM: 1.6
WNT-TCF targets [1]; [4]
  fold induction at 0.5 µM: 1.1
WNT-TCF targets [1]; [5]
  fold induction at 0.5 µM: 0.5
WNT-TCF targets [1]; [6]
  fold induction at 0.5 µM: 0.1

## 2,6-dimethyltetrahydropyran-3,4,5-triol; ethane; 3-(3,14,16-trihydroxy-10,13-dimethyl-1,2,3,4,5,6,7,8,9,11,12,15,16,17-tetradecahydro cyclopenta[a]phenanthren-17-yl)-2H-furan-5-one [CAP3]
WNT-TCF targets [1]; Ls174T, 10 µM, 16h
  AXIN2 expression: 0.7
  CDKN1A expression: 6.3
  LGR5 expression: 0.2
  cMYC expression: 0.2
CC14 cells
  epithelial island morphology: maintained
  concentration at which disrupted morphology phenotype was observed: 5 µM

## C[C@]12CC[C@H](O)C[C@H]1CC[C@@H]1[C@@H]2CC[C@]2(C)[C@@H](C3=CC(=O)OC3)[C@@H](O)C[C@]12O [Gitoxigenin, gitoxigenin, reference compound]
WNT-TCF targets [1]; [3]
  fold induction at 0.5 µM: 1
WNT-TCF targets [1]; [4]
  fold induction at 0.5 µM: 0.3
WNT-TCF targets [1]; [5]
  fold induction at 0.5 µM: 0.6
WNT-TCF targets [1]; [6]
  fold induction at 0.5 µM: 0.4

## CC1=C(C)C(=O)O[C@@H]([C@@H](C)[C@H]2CC[C@H]3[C@@H]4[C@@H]5O[C@@H]5[C@@]5(O)CC=CC(=O)[C@]5(C)[C@H]4CC[C@]23C)C1 [Withanolide B, withanolide B, reference compound]
WNT-TCF targets [1]; [7]
  AXIN2 expression: 1.1
  CDKN1A expression: 1.9
  LGR5 expression: 1.3
  cMYC expression: 1.3
WNT-TCF targets [1]; [8]
  AXIN2 expression: 1.3
  LGR5 expression: 1.4

## C[C@@H]1O[C@@H](O[C@H]2CC[C@]3(C=O)[C@H]4CC[C@]5(C)[C@@H](C6=CC(=O)OC6)CC[C@]5(O)[C@@H]4CC[C@]3(O)C2)[C@H](O)[C@H](O)[C@H]1O [Convallatoxin, convallatoxin, reference compound]
WNT-TCF targets [1]; [9]
  fold induction at 0.5 µM: 1.7
WNT-TCF targets [1]; [10]
  fold induction at 0.5 µM: 0.3
WNT-TCF targets [1]; LS174T, 16 h, read-out: LGR5 expression
  fold induction at 0.5 µM: 1.6
WNT-TCF targets [1]; [11]
  fold induction at 0.5 µM: 0.2

## CO[C@H]1[C@H](O)[C@H](O[C@H]2CC[C@@]3(C)[C@H](CC[C@@H]4[C@@H]3CC[C@]3(C)[C@@H](C5=CC(=O)OC5)CC[C@]43O)C2)O[C@@H](C)[C@@H]1O [Neriifolin, neriifolin, reference compound]
WNT-TCF targets [1]; [3]
  fold induction at 0.5 µM: 1.2
WNT-TCF targets [1]; [5]
  fold induction at 0.5 µM: 1.8

## C[C@H]1O[C@@H](O[C@H]2[C@@H](O)C[C@H](O[C@H]3[C@@H](O)C[C@H](O[C@H]4CC[C@@]5(C)[C@H](CC[C@@H]6[C@@H]5CC[C@]5(C)[C@@H](C7=CC(=O)OC7)[C@@H](O)C[C@]65O)C4)O[C@@H]3C)O[C@@H]2C)C[C@H](O)[C@@H]1O [Gitoxin, gitoxin, reference compound]
WNT-TCF targets [1]; [9]
  fold induction at 0.5 µM: 0.4
WNT-TCF targets [1]; [10]
  fold induction at 0.5 µM: 1.3
WNT-TCF targets [1]; [11]
  fold induction at 0.5 µM: 0.8

## CO[C@H]1C[C@H](O[C@H]2CC[C@]3(C=O)[C@H]4CC[C@]5(C)[C@@H](C6=CC(=O)OC6)CC[C@]5(O)[C@@H]4CC[C@]3(O)C2)O[C@H](C)[C@H]1O [Cymarin, cymarin, reference compound]
WNT-TCF targets [1]; [3]
  fold induction at 0.5 µM: 1
WNT-TCF targets [1]; [4]
  fold induction at 0.5 µM: 0.9
WNT-TCF targets [1]; [5]
  fold induction at 0.5 µM: 0.9
WNT-TCF targets [1]; [6]
  fold induction at 0.5 µM: 1

## CC1=C(C)C(=O)O[C@@H]([C@](C)(O)[C@H]2CC[C@H]3[C@@H]4[C@@H]5O[C@@H]5[C@@]5(O)CC=CC(=O)[C@]5(C)[C@H]4CC[C@]23C)C1 [Withanolide A, withanolide A, reference compound]
WNT-TCF targets [1]; [7]
  AXIN2 expression: 0.8
  CDKN1A expression: 0.7
  LGR5 expression: 0.8
  cMYC expression: 0.4
WNT-TCF targets [1]; [8]
  AXIN2 expression: 1.8
  LGR5 expression: 1.3
